Reference: PubChem BioAssay (NCI)
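At the GI50, growth is halved. TGI: concentration producing complete growth inhibition.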

Assays:
Assay in all cases: NCI tumour cell line growth inhibition, 384-well format
MCF7 breast = system: MCF7 breast
CCRF-CEM leukemia = system: CCRF-CEM leukemia
U251 glioblastoma = system: U251 glioblastoma
SW-620 colon = system: SW-620 colon
SK-MEL-2 melanoma = system: SK-MEL-2 melanoma
MDA-MB-468 breast = system: MDA-MB-468 breast
OVCAR-5 ovarian = system: OVCAR-5 ovarian
K-562 leukemia = system: K-562 leukemia
SN12C renal = system: SN12C renal
ACHN renal = system: ACHN renal
DU-145 prostate = system: DU-145 prostate
A498 renal = system: A498 renal
MOLT-4 leukemia = system: MOLT-4 leukemia
HS 578T breast = system: HS 578T breast
HL-60(TB) leukemia = system: HL-60(TB) leukemia
BT-549 breast = system: BT-549 breast
COLO 205 colon = system: COLO 205 colon
HCC-2998 colon = system: HCC-2998 colon
KM12 colon = system: KM12 colon
NCI-H460 NSCLC = system: NCI-H460 NSCLC
HOP-92 NSCLC = system: HOP-92 NSCLC
786-0 renal = system: 786-0 renal
CAKI-1 renal = system: CAKI-1 renal
SK-MEL-5 melanoma = system: SK-MEL-5 melanoma
UACC-257 melanoma = system: UACC-257 melanoma
MDA-MB-435 melanoma = system: MDA-MB-435 melanoma
HT29 colon = system: HT29 colon
OVCAR-8 ovarian = system: OVCAR-8 ovarian
SF-268 CNS = system: SF-268 CNS
TK-10 renal = system: TK-10 renal
SK-MEL-28 melanoma = system: SK-MEL-28 melanoma
MDA-MB-231 breast = system: MDA-MB-231 breast
PC-3 prostate = system: PC-3 prostate
HCT-116 colon = system: HCT-116 colon
IGROV1 ovarian = system: IGROV1 ovarian
NCI-H522 lung = system: NCI-H522 lung
OVCAR-3 ovarian = system: OVCAR-3 ovarian
SNB-19 CNS = system: SNB-19 CNS
RPMI-8226 leukemia = system: RPMI-8226 leukemia
A549 NSCLC = system: A549 NSCLC
NCI-H322M lung = system: NCI-H322M lung
T-47D breast = system: T-47D breast
UO-31 renal = system: UO-31 renal
OVCAR-4 ovarian = system: OVCAR-4 ovarian
EKVX NSCLC = system: EKVX NSCLC
NCI/ADR-RES ovarian = system: NCI/ADR-RES ovarian
NCI-H226 lung = system: NCI-H226 lung
SK-OV-3 ovarian = system: SK-OV-3 ovarian
NCI-H23 lung = system: NCI-H23 lung
RXF 393 renal = system: RXF 393 renal
SR leukemia = system: SR leukemia

## CC[C@@H]1C(=O)N(C)c2cnc(Nc3ccc(C(=O)NC4CCN(C)CC4)cc3OC)nc2N1C1CCCC1
MCF7 breast
  GI50: < 10 nM
  TGI: 904 nM
CCRF-CEM leukemia
  GI50: < 10 nM
  TGI: < 10 nM
U251 glioblastoma
  GI50: < 10 nM
  TGI: 85.6 nM
SW-620 colon
  GI50: < 10 nM
  TGI: < 10 nM
SK-MEL-2 melanoma
  GI50: < 10 nM
  TGI: < 10 nM
MDA-MB-468 breast
  GI50: < 10 nM
  TGI: < 10 nM
OVCAR-5 ovarian
  GI50: < 10 nM
  TGI: 226 nM
K-562 leukemia
  GI50: < 10 nM
  TGI: < 10 nM
SN12C renal
  GI50: < 10 nM
  TGI: 880 nM
ACHN renal
  GI50: 66.1 nM
  TGI: 1560 nM
DU-145 prostate
  GI50: < 10 nM
  TGI: < 10 nM
A498 renal
  GI50: < 10 nM
  TGI: 814 nM
MOLT-4 leukemia
  GI50: < 10 nM
  TGI: < 10 nM
HS 578T breast
  GI50: < 10 nM
  TGI: < 10 nM
HL-60(TB) leukemia
  GI50: < 10 nM
  TGI: < 10 nM
BT-549 breast
  GI50: < 10 nM
  TGI: < 10 nM
COLO 205 colon
  GI50: < 10 nM
  TGI: < 10 nM
HCC-2998 colon
  GI50: < 10 nM
  TGI: < 10 nM
KM12 colon
  GI50: < 10 nM
  TGI: < 10 nM
NCI-H460 NSCLC
  GI50: < 10 nM
  TGI: < 10 nM
HOP-92 NSCLC
  GI50: < 10 nM
  TGI: 1050 nM
786-0 renal
  GI50: < 10 nM
  TGI: 149 nM
CAKI-1 renal
  GI50: < 10 nM
  TGI: 1270 nM
SK-MEL-5 melanoma
  GI50: < 10 nM
  TGI: < 10 nM
UACC-257 melanoma
  GI50: < 10 nM
  TGI: 1700 nM
MDA-MB-435 melanoma
  GI50: < 10 nM
  TGI: < 10 nM
HT29 colon
  GI50: < 10 nM
  TGI: 1090 nM
OVCAR-8 ovarian
  GI50: < 10 nM
  TGI: < 10 nM
SF-268 CNS
  GI50: < 10 nM
  TGI: 414 nM
TK-10 renal
  GI50: < 10 nM
  TGI: 235 nM
SK-MEL-28 melanoma
  GI50: < 10 nM
  TGI: 1920 nM
MDA-MB-231 breast
  GI50: < 10 nM
  TGI: 1350 nM
PC-3 prostate
  GI50: < 10 nM
  TGI: 2460 nM
HCT-116 colon
  GI50: < 10 nM
  TGI: 135 nM
IGROV1 ovarian
  GI50: < 10 nM
  TGI: 224 nM
NCI-H522 lung
  GI50: < 10 nM
  TGI: < 10 nM
OVCAR-3 ovarian
  GI50: < 10 nM
  TGI: < 10 nM
SNB-19 CNS
  GI50: < 10 nM
  TGI: 269 nM
RPMI-8226 leukemia
  GI50: < 10 nM
  TGI: < 10 nM
A549 NSCLC
  GI50: < 10 nM
  TGI: 121 nM
NCI-H322M lung
  GI50: < 10 nM
  TGI: 1400 nM
T-47D breast
  GI50: < 10 nM
  TGI: 166 nM
UO-31 renal
  GI50: 77.1 nM
  TGI: 1480 nM
OVCAR-4 ovarian
  GI50: 10.3 nM
  TGI: 129 nM
EKVX NSCLC
  GI50: < 10 nM
  TGI: 62.1 nM
NCI/ADR-RES ovarian
  GI50: 196 nM
  TGI: 591 nM
NCI-H226 lung
  GI50: 224 nM
  TGI: 1920 nM
SK-OV-3 ovarian
  GI50: < 10 nM
  TGI: 107 nM
NCI-H23 lung
  GI50: < 10 nM
  TGI: < 10 nM
RXF 393 renal
  GI50: < 10 nM
  TGI: < 10 nM
SR leukemia
  GI50: < 10 nM
  TGI: < 10 nM
